The source made the active and inactive calls. For most assays here, no stated cut-off is given here; in the data, actives have a measured Kd and inactives only a lower limit.
Columns and labels:
[1] = target: Protein-tyrosine kinase 6 (Homo sapiens, UniProt Q13882)
[2] = target: Mitogen-activated protein kinase kinase kinase kinase 5 (Homo sapiens, UniProt Q9Y4K4)
[3] = target: T1, Serine/threonine-protein kinase ICK (Homo sapiens, UniProt Q9UPZ9)
T1 sequence (Q9UPZ9 whole entry): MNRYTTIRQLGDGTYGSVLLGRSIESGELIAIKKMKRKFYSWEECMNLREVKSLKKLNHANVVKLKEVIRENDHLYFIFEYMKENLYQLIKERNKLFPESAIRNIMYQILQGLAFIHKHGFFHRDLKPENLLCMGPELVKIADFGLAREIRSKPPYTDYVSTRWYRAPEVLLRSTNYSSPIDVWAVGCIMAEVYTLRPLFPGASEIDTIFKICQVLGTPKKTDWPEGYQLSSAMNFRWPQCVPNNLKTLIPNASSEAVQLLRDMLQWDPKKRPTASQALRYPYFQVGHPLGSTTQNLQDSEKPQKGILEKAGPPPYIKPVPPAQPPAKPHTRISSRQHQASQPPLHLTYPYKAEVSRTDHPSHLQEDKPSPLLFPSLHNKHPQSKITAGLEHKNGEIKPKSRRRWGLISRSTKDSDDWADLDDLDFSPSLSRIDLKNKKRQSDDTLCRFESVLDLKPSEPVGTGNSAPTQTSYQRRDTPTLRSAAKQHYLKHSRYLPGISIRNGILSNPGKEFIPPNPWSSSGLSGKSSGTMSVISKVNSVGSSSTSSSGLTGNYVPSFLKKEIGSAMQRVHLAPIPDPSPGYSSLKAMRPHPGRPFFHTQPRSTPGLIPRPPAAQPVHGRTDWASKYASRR

[4] = target: Protein kinase C alpha type (Homo sapiens, UniProt P17252)
[5] = target: T2, Very long-chain specific acyl-CoA dehydrogenase, mitochondrial (Homo sapiens, UniProt P49748)
T2 sequence (P49748 whole entry): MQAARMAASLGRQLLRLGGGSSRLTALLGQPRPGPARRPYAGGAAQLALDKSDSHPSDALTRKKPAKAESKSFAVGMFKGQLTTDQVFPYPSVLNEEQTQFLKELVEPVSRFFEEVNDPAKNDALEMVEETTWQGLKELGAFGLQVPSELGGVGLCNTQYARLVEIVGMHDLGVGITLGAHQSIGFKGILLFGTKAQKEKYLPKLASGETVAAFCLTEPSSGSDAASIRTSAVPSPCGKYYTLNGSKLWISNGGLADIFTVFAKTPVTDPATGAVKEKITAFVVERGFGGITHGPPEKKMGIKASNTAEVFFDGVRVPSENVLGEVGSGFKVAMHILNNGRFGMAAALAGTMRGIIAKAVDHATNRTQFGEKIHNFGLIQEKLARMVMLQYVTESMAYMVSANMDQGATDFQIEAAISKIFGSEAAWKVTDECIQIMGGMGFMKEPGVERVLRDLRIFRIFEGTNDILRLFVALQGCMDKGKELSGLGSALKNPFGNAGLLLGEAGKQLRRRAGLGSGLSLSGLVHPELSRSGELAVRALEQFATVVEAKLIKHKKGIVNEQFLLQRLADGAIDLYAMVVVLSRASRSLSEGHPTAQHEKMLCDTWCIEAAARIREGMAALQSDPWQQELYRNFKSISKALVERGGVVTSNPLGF

[6] = target: T3, Delta(24)-sterol reductase (Homo sapiens, UniProt Q15392)
T3 sequence (Q15392 whole entry): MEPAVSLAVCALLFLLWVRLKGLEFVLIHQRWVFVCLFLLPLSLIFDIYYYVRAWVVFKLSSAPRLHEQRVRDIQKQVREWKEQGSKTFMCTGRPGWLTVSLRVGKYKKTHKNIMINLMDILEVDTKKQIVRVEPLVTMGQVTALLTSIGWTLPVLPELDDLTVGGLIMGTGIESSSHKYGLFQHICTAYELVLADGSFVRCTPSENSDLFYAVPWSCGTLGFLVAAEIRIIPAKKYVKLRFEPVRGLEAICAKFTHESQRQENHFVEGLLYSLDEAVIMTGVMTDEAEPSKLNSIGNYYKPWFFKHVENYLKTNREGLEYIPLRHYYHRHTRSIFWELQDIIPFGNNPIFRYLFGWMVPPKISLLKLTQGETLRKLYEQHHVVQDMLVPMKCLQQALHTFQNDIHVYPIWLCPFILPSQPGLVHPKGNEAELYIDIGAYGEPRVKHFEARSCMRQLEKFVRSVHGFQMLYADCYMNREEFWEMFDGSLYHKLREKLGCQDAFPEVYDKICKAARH

Ephrin type-B receptor 3 = target: T4, Ephrin type-B receptor 3 (Homo sapiens, UniProt P54753)
T4 sequence (P54753 whole entry): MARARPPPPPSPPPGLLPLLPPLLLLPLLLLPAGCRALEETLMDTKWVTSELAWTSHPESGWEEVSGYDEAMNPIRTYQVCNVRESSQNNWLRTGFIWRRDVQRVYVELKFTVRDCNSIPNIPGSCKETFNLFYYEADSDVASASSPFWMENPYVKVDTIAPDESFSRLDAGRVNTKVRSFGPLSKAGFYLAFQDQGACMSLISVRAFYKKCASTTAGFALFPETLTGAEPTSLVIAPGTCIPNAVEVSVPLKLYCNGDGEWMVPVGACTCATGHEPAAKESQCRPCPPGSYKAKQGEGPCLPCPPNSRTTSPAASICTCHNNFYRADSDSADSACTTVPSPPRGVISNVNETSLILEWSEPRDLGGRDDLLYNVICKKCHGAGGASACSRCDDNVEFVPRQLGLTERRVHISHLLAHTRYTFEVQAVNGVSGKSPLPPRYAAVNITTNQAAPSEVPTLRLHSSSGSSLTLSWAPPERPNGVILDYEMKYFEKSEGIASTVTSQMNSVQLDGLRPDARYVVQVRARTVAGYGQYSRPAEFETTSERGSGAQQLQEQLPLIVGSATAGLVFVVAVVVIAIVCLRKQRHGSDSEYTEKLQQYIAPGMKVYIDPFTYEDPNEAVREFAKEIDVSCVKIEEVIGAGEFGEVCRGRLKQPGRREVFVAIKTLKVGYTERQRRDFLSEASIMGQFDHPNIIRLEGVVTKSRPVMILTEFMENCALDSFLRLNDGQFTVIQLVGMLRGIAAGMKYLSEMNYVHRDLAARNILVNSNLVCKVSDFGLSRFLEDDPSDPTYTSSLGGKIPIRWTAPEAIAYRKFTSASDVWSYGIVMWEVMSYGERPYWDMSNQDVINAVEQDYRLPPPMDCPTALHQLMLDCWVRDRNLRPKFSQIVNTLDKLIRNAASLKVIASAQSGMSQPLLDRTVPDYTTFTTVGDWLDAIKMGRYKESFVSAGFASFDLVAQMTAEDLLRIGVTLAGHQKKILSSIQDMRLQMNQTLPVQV

Focal adhesion kinase 1 = Focal adhesion kinase 1 (Homo sapiens, UniProt Q05397)
Chain of Focal adhesion kinase 1 (Q05397 whole entry): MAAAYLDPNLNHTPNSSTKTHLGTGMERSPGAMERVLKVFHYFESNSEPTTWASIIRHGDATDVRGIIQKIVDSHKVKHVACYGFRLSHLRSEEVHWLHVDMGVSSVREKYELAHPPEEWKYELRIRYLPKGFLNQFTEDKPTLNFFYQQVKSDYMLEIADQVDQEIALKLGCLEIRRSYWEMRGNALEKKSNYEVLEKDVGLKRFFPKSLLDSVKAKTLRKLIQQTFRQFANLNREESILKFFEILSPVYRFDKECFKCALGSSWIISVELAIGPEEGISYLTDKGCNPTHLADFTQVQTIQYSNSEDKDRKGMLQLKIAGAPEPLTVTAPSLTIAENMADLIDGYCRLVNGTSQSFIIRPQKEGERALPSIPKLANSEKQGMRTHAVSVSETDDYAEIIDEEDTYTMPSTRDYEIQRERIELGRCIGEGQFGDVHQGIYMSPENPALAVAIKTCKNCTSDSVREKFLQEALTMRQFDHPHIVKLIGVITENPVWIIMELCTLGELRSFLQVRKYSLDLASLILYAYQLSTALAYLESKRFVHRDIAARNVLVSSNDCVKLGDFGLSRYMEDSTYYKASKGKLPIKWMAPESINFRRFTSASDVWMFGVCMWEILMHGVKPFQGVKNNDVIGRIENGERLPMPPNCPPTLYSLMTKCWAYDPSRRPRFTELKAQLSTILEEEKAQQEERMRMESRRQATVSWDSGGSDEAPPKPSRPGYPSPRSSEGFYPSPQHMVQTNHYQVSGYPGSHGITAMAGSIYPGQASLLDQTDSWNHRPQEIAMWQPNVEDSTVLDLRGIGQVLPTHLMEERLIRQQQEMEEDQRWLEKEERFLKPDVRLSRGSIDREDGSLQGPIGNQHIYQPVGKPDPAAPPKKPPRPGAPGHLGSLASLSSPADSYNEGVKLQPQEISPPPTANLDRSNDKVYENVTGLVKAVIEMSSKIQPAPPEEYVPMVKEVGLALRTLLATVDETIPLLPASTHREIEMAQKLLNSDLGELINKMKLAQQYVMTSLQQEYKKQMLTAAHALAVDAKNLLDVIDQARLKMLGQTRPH

Chain of Protein-tyrosine kinase 6 (Q13882 whole entry): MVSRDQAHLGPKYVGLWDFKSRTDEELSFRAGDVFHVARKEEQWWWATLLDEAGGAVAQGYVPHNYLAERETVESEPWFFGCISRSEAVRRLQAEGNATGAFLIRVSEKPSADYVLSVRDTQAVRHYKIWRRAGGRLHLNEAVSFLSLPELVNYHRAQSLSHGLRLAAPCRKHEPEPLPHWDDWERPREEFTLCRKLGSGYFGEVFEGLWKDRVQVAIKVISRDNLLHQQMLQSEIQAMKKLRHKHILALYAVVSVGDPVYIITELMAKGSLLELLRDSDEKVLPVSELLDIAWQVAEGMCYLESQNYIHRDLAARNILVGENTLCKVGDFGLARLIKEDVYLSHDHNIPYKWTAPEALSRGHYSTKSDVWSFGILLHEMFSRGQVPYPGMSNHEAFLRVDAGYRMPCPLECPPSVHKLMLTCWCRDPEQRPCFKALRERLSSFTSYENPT
Chain of Mitogen-activated protein kinase kinase kinase kinase 5 (Q9Y4K4 whole entry): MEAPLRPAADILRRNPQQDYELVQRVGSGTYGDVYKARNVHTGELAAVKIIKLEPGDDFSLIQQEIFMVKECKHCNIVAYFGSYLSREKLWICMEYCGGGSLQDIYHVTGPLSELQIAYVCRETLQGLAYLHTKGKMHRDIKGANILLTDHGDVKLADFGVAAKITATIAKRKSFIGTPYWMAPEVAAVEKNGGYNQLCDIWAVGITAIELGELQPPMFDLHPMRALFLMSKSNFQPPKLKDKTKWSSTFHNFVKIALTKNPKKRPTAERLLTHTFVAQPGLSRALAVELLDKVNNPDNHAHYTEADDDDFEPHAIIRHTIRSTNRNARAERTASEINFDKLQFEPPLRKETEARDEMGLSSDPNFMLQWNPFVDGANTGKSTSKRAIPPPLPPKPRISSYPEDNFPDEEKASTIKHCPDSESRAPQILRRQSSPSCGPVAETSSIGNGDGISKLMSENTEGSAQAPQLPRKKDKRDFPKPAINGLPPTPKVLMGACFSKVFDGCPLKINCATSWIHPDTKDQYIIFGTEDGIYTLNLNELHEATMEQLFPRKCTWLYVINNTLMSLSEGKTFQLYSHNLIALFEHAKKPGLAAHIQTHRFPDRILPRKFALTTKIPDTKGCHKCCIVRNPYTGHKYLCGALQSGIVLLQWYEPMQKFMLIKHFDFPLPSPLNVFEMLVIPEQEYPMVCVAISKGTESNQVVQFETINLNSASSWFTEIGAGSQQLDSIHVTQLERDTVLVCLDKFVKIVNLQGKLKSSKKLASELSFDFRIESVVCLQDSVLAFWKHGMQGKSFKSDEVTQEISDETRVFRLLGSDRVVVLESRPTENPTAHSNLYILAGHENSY

Row | Compound | Kd [1] | Kd [2] | Kd [3] | Kd [4] | Kd [5] | Kd [6] | Kd (Ephrin type-B receptor 3) | Kd (Focal adhesion kinase 1)
1 | CCc1cnn2c(NCc3ccc[n+]([O-])c3)cc(N3CCCC[C@H]3CCO)nc12 [DINACICLIB] | > 30 µM (inactive) | > 30 µM (inactive) | 0.271 µM (active) | > 30 µM (inactive) | > 30 µM (inactive) | > 30 µM (inactive) | > 30 µM (inactive) | –
2 | Cn1ncc(Cl)c1-c1cc(C(=O)N[C@H](CN)Cc2cccc(F)c2)sc1Cl [AFURESERTIB] | > 30 µM (inactive) | > 30 µM (inactive) | – | 21.4 µM (active) | > 30 µM (inactive) | > 30 µM (inactive) | > 30 µM (inactive) | > 30 µM (inactive)
3 | CC[C@H](Nc1ncnc2[nH]cnc12)c1nc2cccc(F)c2c(=O)n1-c1ccccc1 [IDELALISIB] | > 30 µM (inactive) | > 30 µM (inactive) | > 30 µM (inactive) | > 30 µM (inactive) | > 30 µM (inactive) | > 30 µM (inactive) | > 30 µM (inactive) | > 30 µM (inactive)
4 | O=C(O)[C@]1(Cc2cccc(Nc3nccs3)n2)CC[C@@H](Oc2cccc(Cl)c2F)CC1 [MK-5108] | 0.841 µM (active) | > 30 µM (inactive) | > 30 µM (inactive) | > 30 µM (inactive) | > 30 µM (inactive) | > 30 µM (inactive) | > 30 µM (inactive) | > 30 µM (inactive)
5 | C[C@@H]1CN(Cc2ccc(F)cc2)[C@@H](C)CN1C(=O)c1cc2c(C(=O)C(=O)N(C)C)cn(C)c2cc1Cl [TALMAPIMOD] | > 30 µM (inactive) | > 30 µM (inactive) | > 30 µM (inactive) | > 30 µM (inactive) | > 30 µM (inactive) | – | > 30 µM (inactive) | > 30 µM (inactive)
6 | CO[C@H]1C[C@@H]2CC[C@@H](C)[C@@](O)(O2)C(=O)C(=O)N2CCCC[C@H]2C(=O)O[C@H]([C@H](C)C[C@@H]2CC[C@@H](OCCO)[C@H](OC)C2)CC(=O)[C@H](C)/C=C(\C)[C@@H](O)[C@@H](OC)C(=O)[C@H](C)C[C@H](C)/C=C/C=C/C=C/1C [EVEROLIMUS] | > 30 µM (inactive) | > 30 µM (inactive) | – | > 30 µM (inactive) | > 30 µM (inactive) | > 30 µM (inactive) | > 30 µM (inactive) | > 30 µM (inactive)
7 | COc1cc2nccc(Oc3ccc(NC(=O)NC4CC4)c(Cl)c3)c2cc1C(N)=O [LENVATINIB] | 0.173 µM | – | > 30 µM (inactive) | > 30 µM (inactive) | > 30 µM (inactive) | > 30 µM (inactive) | > 30 µM (inactive) | > 30 µM (inactive)
8 | OCCn1cc(-c2cnc3nnn(Cc4ccc5ncccc5c4)c3n2)cn1 [PF-04217903] | > 30 µM (inactive) | > 30 µM (inactive) | > 30 µM (inactive) | > 30 µM (inactive) | > 30 µM (inactive) | > 30 µM (inactive) | > 30 µM (inactive) | –
9 | CN1CCN(c2ccc3nc(-c4c(N)c5c(F)cccc5[nH]c4=O)[nH]c3c2)CC1 [DOVITINIB] | – | – | – | > 30 µM (inactive) | > 30 µM (inactive) | > 30 µM (inactive) | – | –
10 | Cc1cc(Nc2cc(N3CCN(C)CC3)nc(/C=C/c3ccccc3)n2)n[nH]1 [ENMD-2076] | – | – | > 30 µM (inactive) | > 30 µM (inactive) | > 30 µM (inactive) | > 30 µM (inactive) | > 30 µM (inactive) | –
11 | COCCNCc1ccc(-c2cc3nccc(Oc4ccc(NC(=S)NC(=O)Cc5ccc(F)cc5)cc4F)c3s2)nc1 [GLESATINIB] | – | > 30 µM (inactive) | > 30 µM (inactive) | > 30 µM (inactive) | > 30 µM (inactive) | > 30 µM (inactive) | > 30 µM (inactive) | > 30 µM (inactive)
12 | CCn1c(-c2nonc2N)nc2c(C#CC(C)(C)O)ncc(OC[C@H]3CCCNC3)c21 [GSK-690693] | – | – | – | 0.566 µM (active) | > 30 µM (inactive) | > 30 µM (inactive) | – | –
13 | O=C(Nc1cccc(Cl)c1)Nc1ncc(CCNc2ncnc3ccsc23)s1 [SNS-314] | – | – | > 30 µM (inactive) | > 30 µM (inactive) | > 30 µM (inactive) | > 30 µM (inactive) | > 30 µM (inactive) | –
14 | COc1cc2nccc(Oc3ccc(NC(=O)Nc4cc(C)on4)c(Cl)c3)c2cc1OC [TIVOZANIB] | 0.787 µM (active) | – | > 30 µM (inactive) | > 30 µM (inactive) | > 30 µM (inactive) | > 30 µM (inactive) | 5.43 µM (active) | > 30 µM (inactive)
15 | Cc1cn(-c2cc(NC(=O)c3ccc(C)c(Nc4nccc(-c5cccnc5)n4)c3)cc(C(F)(F)F)c2)cn1 [NILOTINIB] | – | – | – | > 30 µM (inactive) | > 30 µM (inactive) | > 30 µM (inactive) | – | –
16 | Nc1nc(N)c2nc(-c3cccc(O)c3)c(-c3cccc(O)c3)nc2n1 [TG100-115] | > 30 µM (inactive) | – | – | > 30 µM (inactive) | 1.69 µM | > 30 µM (inactive) | – | –
17 | COC(=O)[C@@]1(O)C[C@H]2O[C@]1(C)n1c3ccccc3c3c4c(c5c6ccccc6n2c5c31)C(=O)NC4 [K-252A] | > 30 µM (inactive) | 0.193 µM (active) | > 30 µM (inactive) | – | > 30 µM (inactive) | > 30 µM (inactive) | > 30 µM (inactive) | > 30 µM (inactive)
18 | Cc1nc(N)sc1-c1ccnc(Nc2ccc(N3CCOCC3)cc2)n1 [CYC-116] | – | – | – | > 30 µM (inactive) | > 30 µM (inactive) | > 30 µM (inactive) | > 30 µM (inactive) | 13 µM (active)

Source: ChEMBL document CHEMBL3991601, “The target landscape of clinical kinase drugs” (Science, 2017)
